Laboratory results as given in patent US11795511B2, “Methods and compositions for the prognosis and treatment of relapsed leukemia” (NEW YORK UNIVERSITY, priority 2012, dated 2023).

What was measured:
Reh cells [1] = experiment: Apoptosis assay (Annexin V-PE / 7-AAD, flow cytometry) of Reh cells transduced with wild-type or mutant cN-II after drug treatment; assay type: cell-based; details: Reh cells transduced with lentiviruses encoding wild-type or mutant (Arg238Trp, Arg367Gln or Ser445Phe) cN-II; incubation 24-72 h
Procedure: Cell Culture and Drug Treatment. Reh cells obtained from the American Type Culture Collection (ATCC) were grown in RPMI1640 supplemented with 10% FBS, 10 mM HEPES and 1% penicillin-streptomycin under 5% CO2 at 37° C. 293T cells (ATCC) were grown in DMEM supplemented with 10% FBS and 1% penicillin-streptomycin under 5% CO2 at 37° C. 6-mercaptopurine, 6-thioguanine, cytarabine, doxorubicin, gemcitabine and prednisolone (Sigma) were serially diluted in RPMI before use at the indicated concentrations.
Transient Transfection and Lentivirus Gene Transfer. NT5C2 DNA for wild-type and mutant (Arg238Trp, Arg367Gln and Ser445Phe) was cloned into the lentiviral vector pLenti using SalI and XbaI restriction sites. All plasmids were sequence verified. cDNA constructs were transfected into 293T cells along with helper plasmids using the calcium phosphate method to produce replication-defective virus. Supernatant was harvested 48 h later and used to transduce Reh cells (whose NT5C2 sequence was verified as wild type) supplemented with […] polybrene (Sigma). Virus-containing medium was replaced 24 h after infection. Cells were monitored 72 h after infection for infection efficiency by the detection of GFP-positive cells using a FACScan (BD). Infected cells were plated (200,000 cells per well in […] of medium) in triplicate for drug treatment with 6-mercaptopurine, 6-thioguanine, cytarabine, doxorubicin, gemcitabine and prednisolone (Sigma). Cells were incubated for 24-72 h and then assayed for apoptosis by Annexin V-PE and 7-AAD staining (Annexin V-PE Apoptosis Detection kit, BD Pharmingen) followed by flow cytometry analysis using a FACScan. The percentages of cells positive and negative for Annexin V and/or 7-AAD staining were analyzed with FlowJo software (version 7.6.1, Tree Star). Data were plotted relative to results obtained with no chemotherapy treatment, and error bars represent the standard deviation from three independent determinations. Cells (1×10^6) were harvested for protein at the time of plating. Briefly, cells were pelleted at 200 g for 5 min and resuspended in […] of RIPA buffer with 1× protease inhibitors (GE Healthcare), incubated on ice for 15 min and centrifuged at 15,000 g for 10 min at 4° C. Protein was subjected to electrophoresis on 9% SDS-Tris acrylamide gels and transferred to PVDF membranes. Membranes were incubated with a 1:5,000 dilution of antibody to Flag (F3165, Sigma), incubated with a 1:10,000 dilution of HRP-conjugated secondary antibody to mouse (GE Healthcare) and developed using ECL (GE Healthcare).

Reh cells [2] = experiment: HPLC determination of thioguanine nucleotides in Reh cells after 6-mercaptopurine treatment; assay type: cell-based; details: 6-mercaptopurine treatment for 24 h
Procedure: HPLC determination of nucleotides. Reh cells were transiently infected with NT5C2 constructs. After infection, cells were treated with 10 mM 6-mercaptopurine for 24 h in duplicate. After 24 h, 5×10^6 cells were washed twice with PBS, and cell pellets were frozen at −80° C. Intraceullar accumulation of thioguanine nucleotides (6-mercaptopurine active metabolites) was determined by a reversed-phase liquid chromatography assay as described previously (Dervieux et al., “HPLC Determination of Thiopurine Nucleosides and Nucleotides In Vivo in Lymphoblasts Following Mercaptopurine Therapy,” Clin. Chem. 48: 61-68 (2002), which is hereby incorporated by reference in its entirety).

cN-II = cN-II (Homo sapiens, UniProt P49902); details: cited from earlier work
Sequence of cN-II (P49902 whole entry): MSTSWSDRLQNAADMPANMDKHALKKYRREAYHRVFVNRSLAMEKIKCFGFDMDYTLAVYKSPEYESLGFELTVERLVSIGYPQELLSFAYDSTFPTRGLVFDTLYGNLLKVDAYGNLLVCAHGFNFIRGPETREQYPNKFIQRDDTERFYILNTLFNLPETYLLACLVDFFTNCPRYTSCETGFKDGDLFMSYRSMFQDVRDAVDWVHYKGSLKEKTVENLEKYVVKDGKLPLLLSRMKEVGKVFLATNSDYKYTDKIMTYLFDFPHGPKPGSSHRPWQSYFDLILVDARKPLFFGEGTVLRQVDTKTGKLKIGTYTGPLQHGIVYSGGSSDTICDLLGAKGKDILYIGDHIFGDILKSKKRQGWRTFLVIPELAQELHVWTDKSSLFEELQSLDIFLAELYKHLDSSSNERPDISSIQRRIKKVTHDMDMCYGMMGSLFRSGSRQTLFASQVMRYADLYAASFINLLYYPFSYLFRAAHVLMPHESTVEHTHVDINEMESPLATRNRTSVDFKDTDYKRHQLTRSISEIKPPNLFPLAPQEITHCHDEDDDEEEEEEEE

## Sc1ncnc2nc[nH]c12 [6-mercaptopurine]
Reh cells [1]
  resistance to apoptosis of cells expressing mutant forms of cN-II compared to cells expressing wild-type protein: significantly more resistant to apoptosis
Reh cells [2]
  level of thioguanine nucleotides in cells expressing mutant cN-II compared to control cells expressing wild-type protein or GFP: reduction in the level of thioguanine nucleotides

## C[C@]12C=CC(=O)C=C1CC[C@@H]1[C@@H]2[C@@H](O)C[C@@]2(C)[C@H]1CC[C@]2(O)C(=O)CO [prednisolone]
Reh cells [1]
  resistance to apoptosis of cells expressing mutant forms of cN-II compared to cells expressing wild-type protein: no resistance was seen

## COc1cccc2c1C(=O)c1c(O)c3c(c(O)c1C2=O)C[C@@](O)(C(=O)CO)C[C@@H]3O[C@H]1C[C@H](N)[C@H](O)[C@H](C)O1 [doxorubicin]
Reh cells [1]
  resistance to apoptosis of cells expressing mutant forms of cN-II compared to cells expressing wild-type protein: no resistance was seen

## Nc1nc2nc[nH]c2c(=S)[nH]1 [6-thioguanine]
Reh cells [1]
  resistance to apoptosis of cells expressing mutant forms of cN-II compared to cells expressing wild-type protein: significantly more resistant to apoptosis

## Nc1ccn([C@@H]2O[C@H](COP(=O)(O)O)[C@@H](O)[C@@H]2O)c(=O)n1 [araC monophosphate]
cN-II
  hydrolysis by the purified enzyme: does not hydrolyze

## Nc1ccn([C@@H]2O[C@H](CO)[C@@H](O)C2(F)F)c(=O)n1 [gemcitabine]
Reh cells [1]
  resistance to apoptosis of cells expressing mutant forms of cN-II compared to cells expressing wild-type protein: no resistance was seen

## Nc1ccn([C@@H]2O[C@H](CO)[C@@H](O)[C@@H]2O)c(=O)n1 [cytarabine]
Reh cells [1]
  resistance to apoptosis of cells expressing mutant forms of cN-II compared to cells expressing wild-type protein: no resistance was seen
